# Measured values: patent publication US4201771A (priority 1979, dated 1980)
# Read-outs that look alike come from different tables or passages of the source.
# Legend:
# Assay type in all cases: in vivo
# [1] = system: Piricularia oryzae; conditions: for Rice Blast Lesions per 5th Leaf: Table 2, protectant, untreated control 22; for Rice Blast Lesions/5th Leaf Protectant: Table 1, untreated 52
# [2] = system: Rice, variety Calusa No. 2; experiment: Phytotoxicity / injury on rice in greenhouse bioassay; conditions: Table 2, rice
# Method: Host: Rice, variety Calusa No. 2.
# Growth Conditions: Rice plants grown to 5 leaf stage in greenhouse on Swiss Farm Potting soil in 7 ounce styrafoam pots. Thinned to 3 seedlings per pot. Day temperature 20°-28° C.; night temperature 15°-20° C. Soluble 20--20--20 fertilizer applied weekly.
# Treatment: Test solutions or suspensions of candidate compounds sprayed on both leaf surfaces to run-off with a No. 152 DiVilbiss atomizer at 10 psi. Formulations are prepared by dissolving compounds in methanol-Tween 20 mixture and bringing to volume with deionized water.
# [3] = system: Puccinia recondita f. sp. tritici; conditions: 1000 PPM; untreated 42
# [4] = system: Piricularia oryzae; conditions: 1000 PPM; untreated 69
# [5] = system: Puccinia recondita f. sp. tritici; conditions: untreated 27
# [6] = system: Phytophthora infestans; conditions: untreated 84
smiles,measurement,setting,value
"CCCCNC(=O)n1c(NC(=O)OC)nc2ccccc21 [Benomyl, [1-[(Butylamino)carbonyl]-1H-benzimidazol-2-yl]carbamic acid methyl ester]",Rice Blast Lesions per 5th Leaf,[1]; 1 PPM,4
same,Rice Blast Lesions per 5th Leaf,[1]; 10 PPM,4
same,Rice Blast Lesions per 5th Leaf,[1]; 100 PPM,0.1
same,Remarks (plant injury),[2]; 1 PPM,no injury
same,Remarks (plant injury),[2]; 10 PPM,no injury
same,Remarks (plant injury),[2]; 100 PPM,no injury
"CC1=C(C(=O)Nc2ccccc2)SCCO1 [Carboxin, 5,6Dihydro-2-methyl-N-phenyl-1,4-oxathiin-3-carboxamide]",Wheat Leaf Rust Pustules/Leaf Systemic,[3],4
"CCOP(=O)(Sc1ccccc1)Sc1ccccc1 [Hinosan, O-Ethyl 5,5-diphenylphosphorodithioate]",Rice Blast Lesions/5th Leaf Protectant,[1]; 1 PPM,16
same,Rice Blast Lesions/5th Leaf Protectant,[1]; 10 PPM,8
same,Rice Blast Lesions/5th Leaf Protectant,[1]; 100 PPM,< 1
same,Rice Blast Lesions/5th Leaf Systemic,[4],31
"S=C([S-])NCCNC(=S)[S-].[Mn+2] [Maneb, [[1,2-Ethanediylbis[carbamodithioato]]-(2-)]manganese]",Wheat Leaf Rust Pustules/Leaf Protectant,[5]; 1 PPM,20
same,Wheat Leaf Rust Pustules/Leaf Protectant,[5]; 10 PPM,12
same,Wheat Leaf Rust Pustules/Leaf Protectant,[5]; 100 PPM,0
same,Late Blight (Tomato) Phytophthora % Leaf Necrosis Protectant,[6]; 1 PPM,77%
same,Late Blight (Tomato) Phytophthora % Leaf Necrosis Protectant,[6]; 10 PPM,63%
same,Late Blight (Tomato) Phytophthora % Leaf Necrosis Protectant,[6]; 100 PPM,11%
